Source: patent US11033535B2, “Oxadiazoles and thiadiazoles as TGF-β inhibitors” (Southern Research Institute, priority 2017, dated 2021)
Like-named read-outs stand apart in the source and are kept apart here.

Test: Pharmacokinetic evaluation following a single oral and intravenous administration
Assay type: in vivo, CD1 mouse
Conditions: for concentration at 1 h / concentration at 2 h / concentration at 4 h / concentration at 8 h / concentration at 24 h / AUC(0-inf) / AUC(0-t) / Cmax / MRT inf / half-life: CD1, mouse, plasma, po, 5 mg/kg; for concentration at 1 h / concentration at 2 h / concentration at 4 h / concentration at 8 h / concentration at 24 h: Table 5, PO Dose: 5 mg/kg
Method: A NMP stock solution was prepared by adding 1.136 mL of NMP to 5.68 mg of compound no. 42140 with vortexing and sonification, to obtain a solution with a concentration at 5 mg/mL of 42140:01. Next, to prepare an intravenous formulation, 0.100 mL of the 5 mg/mL stock solution was placed in a new vial. 0.100 mL of NMP and 0.400 mL of PEG400 were added with vortexing and sonification, followed by addition of 0.400 mL of saline with vortexing and sonification. […] 42140:01. Alternatively, to prepare an oral formulation, 0.200 mL of the 5 mg/mL stock solution was placed in a new vial. 0.400 mL of PEG400 was added with vortexing and sonification, followed by addition of 0.400 mL of saline with vortexing and sonifiction. […] 42140:01.
(§1) Briefly, the desired serial concentrations of working solutions were achieved by diluting a stock solution of the compound with 100% acetonitrile. 3 μL of working solutions (5, 10, 20, 50, 100, 500, 1000, 5000, 10000 ng/mL) were added to 30 μL of the blank CD1 mouse plasma to achieve calibration standards of 0.5-1000 ng/mL (0.5, 1, 2, 5, 10, 50, 100, 500, 1000 ng/mL) in a total volume of 33 μL. Five quality control samples at 1 ng/mL, 2 ng/mL, 5 ng/mL, 50 ng/mL and 800 ng/mL for plasma were prepared independently of those used for the calibration curves. These QC samples were prepared on the day of analysis in the same way as calibration standards.
Next, 33 μL standards, 33 μL QC samples, and 33 μL unknown samples (30 μL plasma with 3 μL blank solution) were added to 200 μL of acetonitrile containing IS mixture for precipitating protein, respectively. Then the samples were vortexed for 30 s. After centrifugation at 4 degree Celsius, 4000 rpm for 15 min, 3 μL of supernatant was injected into the LC/MS/MS system for quantitative analysis.
HPLC analysis was performed using 100% water with 0.1% formic acid (Solution A) and 100% acetonitrile with 0.1% formic acid (Solution B) with a flow rate of 0.6 mL/min.
A NMP stock solution was prepared by adding 2.092 mL of NMP to 10.46 mg of […] with vortexing and sonification, to obtain a solution with a concentration at 5 mg/mL of […]. Next, to prepare an intravenous formulation, 0.100 mL of the 5 mg/mL stock solution was placed in a new vial. 0.100 mL of NMP and 0.400 mL of PEG400 were added with vortexing and sonification, followed by addition of 0.400 mL of saline with vortexing and sonification. […] 42320:01. Alternatively, to prepare an oral formulation, 0.200 mL of the 5 mg/mL stock solution was placed in a new vial. 0.400 mL of PEG400 was added with vortexing and sonification, followed by addition of 0.400 mL of saline with vortexing and sonifiction. […] 42320:01.
as §1, with “50 ng/mL,” for “50 ng/mL”

[1] = Mouse 5, read-out: Concentration
[2] = Mouse 6, read-out: Concentration
[3] = mean, read-out: Concentration, Mean
[4] = Mouse 4, read-out: Concentration
[5] = Table 4, IV Dose: 1 mg/kg, Mouse 1
[6] = Table 4, IV Dose: 1 mg/kg, Mouse 2
[7] = Table 4, IV Dose: 1 mg/kg, Mouse 3
[8] = Table 4, IV Dose: 1 mg/kg, mean
[9] = Table 6, PO Dose: 5 mg/kg, Mouse 4
[10] = Table 6, PO Dose: 5 mg/kg, Mouse 5
[11] = Table 6, PO Dose: 5 mg/kg, Mouse 6
[12] = Table 6, PO Dose: 5 mg/kg, mean

- concentration at 1 h [1]: 129 ng/mL
- concentration at 1 h [2]: 136 ng/mL
- concentration at 1 h [3]: 127 ng/mL
- concentration at 2 h [4]: 139 ng/mL
- concentration at 2 h [1]: 140 ng/mL
- concentration at 2 h [2]: 175 ng/mL
- concentration at 2 h [3]: 151 ng/mL
- concentration at 4 h [4]: 103 ng/mL
- concentration at 4 h [1]: 112 ng/mL
- concentration at 4 h [2]: 123 ng/mL
- concentration at 4 h [3]: 113 ng/mL
- concentration at 8 h [4]: 72.7 ng/mL
- concentration at 8 h [1]: 91.4 ng/mL
- concentration at 8 h [2]: 93.5 ng/mL
- concentration at 8 h [3]: 85.9 ng/mL
- concentration at 24 h [4]: 29.8 ng/mL
- concentration at 24 h [1]: 22.7 ng/mL
- concentration at 24 h [2]: 29.6 ng/mL
- concentration at 24 h [3]: 27.4 ng/mL
- AUC(0-inf) (Table 6, PO Dose: 5 mg/kg, Mouse 4, read-out: AUCInf): 2110 ng·h/mL
- AUC(0-t) (Table 6, PO Dose: 5 mg/kg, Mouse 4, read-out: AUClast): 1620 ng·h/mL
- Cmax (Table 6, PO Dose: 5 mg/kg, Mouse 4, read-out: Cmax): 139 ng/mL
- MRT inf (Table 6, PO Dose: 5 mg/kg, Mouse 4, read-out: MRTInf—obs): 15.8 h
- half-life (Table 6, PO Dose: 5 mg/kg, Mouse 4, read-out: T1/2 (converted)): 11.5 h
- AUC(0-inf) (Table 6, PO Dose: 5 mg/kg, Mouse 5, read-out: AUCInf): 2060 ng·h/mL
- AUC(0-t) (Table 6, PO Dose: 5 mg/kg, Mouse 5, read-out: AUClast): 1790 ng·h/mL
- Cmax (Table 6, PO Dose: 5 mg/kg, Mouse 5, read-out: Cmax): 140 ng/mL
- MRT inf (Table 6, PO Dose: 5 mg/kg, Mouse 5, read-out: MRTInf—obs): 11.4 h
- half-life (Table 6, PO Dose: 5 mg/kg, Mouse 5, read-out: T1/2 (converted)): 8.47 h
- AUC(0-inf) (Table 6, PO Dose: 5 mg/kg, Mouse 6, read-out: AUCInf): 2380 ng·h/mL
- AUC(0-t) (Table 6, PO Dose: 5 mg/kg, Mouse 6, read-out: AUClast): 1960 ng·h/mL
- Cmax (Table 6, PO Dose: 5 mg/kg, Mouse 6, read-out: Cmax): 175 ng/mL
- MRT inf (Table 6, PO Dose: 5 mg/kg, Mouse 6, read-out: MRTInf—obs): 13.1 h
- half-life (Table 6, PO Dose: 5 mg/kg, Mouse 6, read-out: T1/2 (converted)): 9.71 h
- AUC(0-inf) (Table 6, PO Dose: 5 mg/kg, mean, read-out: AUCInf, Mean): 2190 ng·h/mL
- AUC(0-t) (Table 6, PO Dose: 5 mg/kg, mean, read-out: AUClast, Mean): 1790 ng·h/mL
- Cmax (Table 6, PO Dose: 5 mg/kg, mean, read-out: Cmax, Mean): 151 ng/mL
- MRT inf (Table 6, PO Dose: 5 mg/kg, mean, read-out: MRTInf—obs, Mean): 13.4 h
- half-life (Table 6, PO Dose: 5 mg/kg, mean, read-out: T1/2, Mean (converted)): 9.9 h
- Tmax (CD1, plasma, Table 6, PO Dose: 5 mg/kg, Mouse 4): 2 h
- AUClast/D [5]: 462 h·ng/mL per mg/kg
- AUC—% Extrap—obs [5]: 17.0%
- Cl_obs [5]: 29.9 mL/min/kg
- AUClast/D [6]: 389 h·ng/mL per mg/kg
- AUC—% Extrap—obs [6]: 19.8%
- Cl_obs [6]: 34.3 mL/min/kg
- AUClast/D [7]: 394 h·ng/mL per mg/kg
- AUC—% Extrap—obs [7]: 11.6%
- Cl_obs [7]: 37.4 mL/min/kg
- AUClast/D, Mean [8]: 415 h·ng/mL per mg/kg
- AUC—% Extrap—obs, Mean [8]: 16.1%
- C0, Mean [8]: 101 ng/mL
- Cl_obs, Mean [8]: 33.9 mL/min/kg
- AUClast/D [9]: 324 h·ng/mL per mg/kg
- AUC—% Extrap—obs [9]: 23.4%
- F [9]: 78.0%
- AUClast/D [10]: 358 h·ng/mL per mg/kg
- AUC—% Extrap—obs [10]: 13.4%
- F [10]: 83.3%
- AUClast/D [11]: 393 h·ng/mL per mg/kg
- AUC—% Extrap—obs [11]: 17.4%
- F [11]: 95.9%
- AUClast/D, Mean [12]: 358 h·ng/mL per mg/kg
- AUC—% Extrap—obs, Mean [12]: 18.1%
- F, Mean [12]: 85.7%
Structure (SMILES): CNCc1ccc(C[C@H](NC(C)=O)c2nnc(-c3cccc(OC(F)(F)F)c3)s2)cc1 [Compound 42140, N-(2-(4-((methylamino)methyl)phenyl)-1-(5-(3-(trifluoromethoxy)phenyl)-1,3,4-thiadiazol-2-yl)ethyl)acetamide]
